Data as given in US11072812B2, “Substrates for covalent tethering of proteins to functional groups or solid surfaces” (PROMEGA CORPORATION, priority 2013, dated 2021).
“Also recorded” adds a separate entry of the source.

Assays:
HaloTag® protein [1] = experiment: Binding efficiency/kinetics to HaloTag protein in cell lysate (chase with fluorescent HaloTag ligand, SDS-PAGE); details: 1 μM; for binding efficiency / labeling kinetics to HaloTag protein in lysate: methotrexate-chloroalkane conjugates, 0-60 min (O4 = PBI-4849, O6 = PBI-4850)
Description: (§1) a) Binding efficiency to HaloTag® protein in lysate was measured by adding the methotrexate-chloroalkane conjugates to lysate from cells expressing a HaloTag® protein to a final concentration of 1 μM. Following 0-60 mins of binding, the reactions were chased with 1 μM fluorescent HaloTag® ligand. Unbound HaloTag® protein was detected through binding to the fluorescent HaloTag® ligand followed by analysis on SDS-PAGE gel and detection on a fluorescent gel scanner.
as §1, with “adding the dexamethasone-chloroalkane conjugates to” for “adding the methotrexate-chloroalkane conjugates to”, “the fluorescent HaloTag ligand followed” for “the fluorescent HaloTag® ligand followed”
a) Binding kinetics to HaloTag® protein in cell lysate was measured by adding the modified BIRB796-chloroalkane conjugates to lysate from cells expressing a HaloTag® protein at a final concentration of 1 μM. After 0-60 min of binding, the reactions were chased with 1 μM fluorescent HaloTag® ligand (Promega Corporation). Unbound HaloTag® protein was detected through binding to the fluorescent HaloTag® ligand followed by analysis on SDS-PAGE and detection on a fluorescent gel scanner.
Following 0-60 min of binding, the reactions were chased with 1 μM fluorescent HaloTag® ligand. Unbound HaloTag® protein was detected through binding to the fluorescent HaloTag® ligand followed by analysis on SDS-PAGE and detection on a fluorescent gel scanner.
a) Binding kinetics to HaloTag® protein in cell lysate was measured by adding the dasatinib-chloroalkane conjugates to lysate (final concentration of 1 μM) from cells expressing a HaloTag® protein. Following 0-60 min of binding, the reactions were chased with 1 μM fluorescent HaloTag® ligand. Unbound HaloTag® protein was detected through binding to the fluorescent HaloTag® ligand followed by analysis on SDS-PAGE and detection on a fluorescent gel scanner.

HaloTag® protein [2] = experiment: Binding efficiency/kinetics to HaloTag protein in cells (cell permeability; chase with fluorescent HaloTag ligand, SDS-PAGE); assay type: cell-based; details: 10 μM
Description: b) Binding efficiency to HaloTag® protein in cells was measured by adding the methotrexate-chloroalkane conjugates to cells expressing a HaloTag® protein to a final concentration of 10 μM. Following 0-120 mins of binding, the reactions were chased with 5 μM fluorescent HaloTag® ligand. Unbound HaloTag® protein was detected through binding to the fluorescent HaloTag® ligand followed by cell lysis, analysis on a SDS-PAGE gel and detection on a fluorescent gel scanner.
b) Binding efficiency to HaloTag® protein in cells was measured by adding the dexamethasone-chloroalkane conjugates to cells expressing a HaloTag® protein to a final concentration of 10 μM. Following 0-60 mins of binding, the reaction was chased with 5 μM fluorescent HaloTag ligand. Unbound HaloTag® protein was detected through binding to the fluorescent HaloTag® ligand followed by cell lysis, analysis on SDS-PAGE gel and detection on a fluorescent gel scanner.
b) Binding kinetics to HaloTag® protein in cells was measured by adding the modified BIRB796-chloroalkane conjugates to cells expressing a HaloTag® protein at a final concentration of 10 μM. Following 0-60 min of binding, the reactions were chased with 5 μM fluorescent HaloTag® ligand. Unbound HaloTag® protein was detected through binding to the fluorescent HaloTag® ligand followed by cell lysis, analysis on SDS-PAGE and detection on a fluorescent gel scanner.
Following 0-180 min of binding, the reactions were chased with 5 μM fluorescent HaloTag® ligand. Unbound HaloTag® protein was detected through binding to the fluorescent HaloTag® ligand followed by cell lysis, analysis on SDS-PAGE and detection on a fluorescent gel scanner.
b) Binding kinetics to HaloTag® protein in cells was measured by adding the dasatinib-chloroalkane conjugates (final concentration of 10 μM) to cells expressing a HaloTag protein which localized to the cytoplasm or the nucleus. Following 0-90 min of binding, the reactions were chased with 5 μM fluorescent HaloTag® ligand. Unbound HaloTag® protein was detected through binding to the fluorescent HaloTag® ligand followed by cell lysis, analysis on SDS-PAGE and detection on a fluorescent gel scanner.

NanoLuc:GR fusion = target: T1, NanoLuc:GR fusion (Homo sapiens, UniProt P04150); experiment: Pull-down of NanoLuc:GR fusion from live HEK293 cells onto HaloTag protein beads; assay type: cell-based; details: HEK293, 10 μM conjugate, 2 h; beads 45 min; release with 150 μM dexamethasone; PBI-4980 compared with PBI-4025
T1 construct: expressed in transfected cells; host or cells: HEK293
T1 sequence (P04150 1-777): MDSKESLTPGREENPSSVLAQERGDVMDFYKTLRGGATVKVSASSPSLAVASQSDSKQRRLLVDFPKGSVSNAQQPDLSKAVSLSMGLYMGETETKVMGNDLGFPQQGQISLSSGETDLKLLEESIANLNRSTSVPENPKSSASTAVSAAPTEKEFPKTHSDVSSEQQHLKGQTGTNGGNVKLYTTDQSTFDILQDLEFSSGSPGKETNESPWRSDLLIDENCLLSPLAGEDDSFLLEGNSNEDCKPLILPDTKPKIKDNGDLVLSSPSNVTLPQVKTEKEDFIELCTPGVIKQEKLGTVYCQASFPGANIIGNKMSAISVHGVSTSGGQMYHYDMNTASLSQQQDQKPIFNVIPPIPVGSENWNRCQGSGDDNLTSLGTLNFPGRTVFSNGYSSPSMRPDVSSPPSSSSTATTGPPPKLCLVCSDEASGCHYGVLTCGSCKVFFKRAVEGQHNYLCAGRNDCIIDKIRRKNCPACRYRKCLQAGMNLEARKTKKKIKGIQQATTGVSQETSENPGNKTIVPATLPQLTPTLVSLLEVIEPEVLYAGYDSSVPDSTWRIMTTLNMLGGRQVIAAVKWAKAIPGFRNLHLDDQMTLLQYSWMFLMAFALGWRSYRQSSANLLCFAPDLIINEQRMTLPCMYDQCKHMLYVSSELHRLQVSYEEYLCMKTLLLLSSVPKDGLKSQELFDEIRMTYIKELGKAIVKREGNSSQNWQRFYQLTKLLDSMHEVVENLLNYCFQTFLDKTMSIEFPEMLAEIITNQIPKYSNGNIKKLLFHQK
Description: HEK293 cells were plated and transfected using PEI with plasmid DNA encoding NanoLuc:GR fusion in wells of a 96-well plate. The DNA was diluted 1:50 with a promoterless carrier DNA plasmid (pCI neo) to a final concentration of 80 ng total DNA per well. Twenty-four hours post-transfection, cells were serum starved for additional 24 hours then incubated with a final concentration of 10 μM PBI-4980 or PBI-4025 while control cells were not treated with the conjugated drug. Following equilibration binding of 2 h, the media was removed, cells quickly washed with PBS and lysed in detergent-based lysis buffer for 10 min. Cell lysates were than transferred to wells of a 96-well plate containing 0.5 μl settled paramagnetic HaloTag® protein beads and incubated with shaking for 45 min. Following binding the unbound fraction was removed, the HaloTag® protein paramagnetic beads were washed 3×, and the captured NanoLuc fusion was specifically released from the beads by competition with 150 μM unconjugated Dexamethasone for 60 min. The released NanoLuc:GR (+PBI-4980 or +PBI-4025) and control samples were detected by using the NanoGlo® assay reagent (Promega Corp).

[3] = target: T2, glucocorticoid receptor (GR) (Homo sapiens, UniProt P04150); experiment: Glucocorticoid receptor competitor assay (fluorescence polarization, Life Technology); assay type: binding; details: dexamethasone-chloroalkane conjugates (carbamate linker = PBI-4980)
T2 construct: purchased Life Technology
T2 sequence (P04150 1-777): T1 sequence (P04150 1-777)
From the text: c) Binding efficiency to the target glucocorticoid receptor (GR) was done using the glucocorticoid receptor competitor assay (Life Technology) as recommended by the manufacturer.

[4] = target: T3, ABL-NanoLuc® fusion protein (Homo sapiens, UniProt P00519); experiment: Pull-down of ABL-NanoLuc fusion from live HEK293 cells onto HaloTag protein beads; assay type: cell-based; details: HEK293, 20 μM conjugate, 2 h; beads 15 min; release with 400 μM dasatinib
T3 construct: expressed in transfected cells; host or cells: HEK293
T3 sequence (P00519 whole entry, the tested form may be a part): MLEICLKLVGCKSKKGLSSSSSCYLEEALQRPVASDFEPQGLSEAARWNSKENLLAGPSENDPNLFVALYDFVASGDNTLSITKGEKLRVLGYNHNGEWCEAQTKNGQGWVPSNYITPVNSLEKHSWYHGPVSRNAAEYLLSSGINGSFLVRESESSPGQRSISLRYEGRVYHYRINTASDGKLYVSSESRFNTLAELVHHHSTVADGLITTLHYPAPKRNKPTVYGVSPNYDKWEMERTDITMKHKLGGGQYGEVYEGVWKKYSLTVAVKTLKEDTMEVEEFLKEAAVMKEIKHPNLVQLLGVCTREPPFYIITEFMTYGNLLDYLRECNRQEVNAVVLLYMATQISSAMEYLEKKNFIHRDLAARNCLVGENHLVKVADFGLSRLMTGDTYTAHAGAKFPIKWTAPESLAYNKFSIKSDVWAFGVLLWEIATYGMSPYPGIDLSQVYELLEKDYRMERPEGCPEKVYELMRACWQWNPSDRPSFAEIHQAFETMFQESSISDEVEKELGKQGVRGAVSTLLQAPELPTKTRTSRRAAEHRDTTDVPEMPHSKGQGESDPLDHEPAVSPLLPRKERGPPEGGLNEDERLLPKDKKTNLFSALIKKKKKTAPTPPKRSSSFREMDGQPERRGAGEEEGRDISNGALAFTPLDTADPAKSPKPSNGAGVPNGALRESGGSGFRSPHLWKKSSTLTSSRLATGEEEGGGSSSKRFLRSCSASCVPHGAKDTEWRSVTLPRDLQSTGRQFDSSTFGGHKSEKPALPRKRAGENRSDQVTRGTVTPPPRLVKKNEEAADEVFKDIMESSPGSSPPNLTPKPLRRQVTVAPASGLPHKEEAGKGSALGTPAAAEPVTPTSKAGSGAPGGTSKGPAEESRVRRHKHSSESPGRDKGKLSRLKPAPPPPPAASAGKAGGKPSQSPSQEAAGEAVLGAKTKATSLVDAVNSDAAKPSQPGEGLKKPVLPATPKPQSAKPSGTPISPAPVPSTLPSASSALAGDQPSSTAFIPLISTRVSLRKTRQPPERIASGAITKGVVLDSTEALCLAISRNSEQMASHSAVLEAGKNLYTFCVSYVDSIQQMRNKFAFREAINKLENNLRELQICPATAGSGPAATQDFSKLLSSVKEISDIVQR
Description: c) The 2 carbamate linkers were also compared for their ability to specifically pull down a ABL-NanoLuc® fusion protein from live cells. HEK293 cells were transfected using PEI with plasmid DNA encoding ABL-NanoLuc® fusion (transfection was done in a 96-well format). The DNA was diluted 1:100 with a promoterless carrier DNA plasmid (pCI-neo; Promega Corporation) to a final concentration of 80 ng total DNA per well. Twenty-four hours post-transfection, cells were incubated with a final concentration of 20 μM PBI-5270 or PBI-5590 while control cells were not treated with the conjugated drug. Following equilibration binding of 2 h, the media was removed; cells were quickly washed with PBS; and cells lysed in detergent-based lysis buffer for 10 min. Cell lysates were then transferred to a 96-well plate containing 0.5 μl settled paramagnetic HaloTag® protein beads and incubated with shaking for 15 min. Following binding, the unbound fraction was removed, the HaloTag® protein paramagnetic beads were washed 3×, and the captured ABL-NanoLuc® fusion was specifically released from the beads by competition with 400 μM unconjugated dasatinib for 15 min. The released ABL-NanoLuc® fusion in the experiment (+PBI-5270 or +PBI-5590) and control samples was detected by NanoGlo® reagent.

[5] = target: T4, NanoLuc-DHFR fusion protein (Homo sapiens, UniProt P00374); experiment: Pull-down of NanoLuc-DHFR fusion from living HEK293 cells onto HaloTag protein beads; assay type: cell-based; details: HEK293, 10 uM conjugate, 2 h; beads 45 min; release with 150 μM methotrexate
T4 construct: expressed in transfected cells; host or cells: HEK293
T4 sequence (P00374 1-187): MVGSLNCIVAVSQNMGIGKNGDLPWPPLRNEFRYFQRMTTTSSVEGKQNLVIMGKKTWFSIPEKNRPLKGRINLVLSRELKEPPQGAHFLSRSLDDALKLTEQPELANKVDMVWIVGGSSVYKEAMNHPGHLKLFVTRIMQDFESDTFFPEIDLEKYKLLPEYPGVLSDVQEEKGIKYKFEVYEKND
Description: HEK293 cells were plated and transfected using PEI with plasmid DNA encoding a NANOLUC-DHFR fusion in wells of a 96-well plate. The DNA was diluted 1:50 with a promoterless carrier DNA plasmid (pCI) to a final concentration of 80 ng total DNA per well. Twenty-four hours post-transfection, cells were serum starved for additional 24 hours and then treated with […] 10 uM PBI-4848 or PBI-5015 while control cells were not treated with the conjugated drug. Following equilibration binding of 2 h, the media was removed, and the cells quickly washed with PBS and lysed in detergent-based lysis buffer for 10 min. Cell lysates were then transferred to wells of a 96-well plate containing 0.5 μl settled paramagnetic HALOTAG protein beads and incubated with shaking for 45 min. Following binding, the unbound fraction was removed, the HALOTAG protein paramagnetic beads washed, 150 μM unconjugated methotrexate added, and the captured NANOLUC:DHFR specifically released from the beads by competition with the unconjugated methotrexate for 60 min. The released NANOLUC:DHFR (+PBI-5015 or +PBI-4848) and control samples were detected by NANOGLO luciferase detection reagent.

[6] = methotrexate-chloroalkane conjugates, 0-120 min (O4 = PBI-4849, O6 = PBI-4850)

C[C@@H]1CC2[C@@H]3CCC4=CC(=O)C=C[C@]4(C)[C@@]3(F)[C@@H](O)C[C@]2(C)[C@@]1(O)C(=O)NCCCCCNC(=O)OCCOCCOCCOC(=O)NCCOCCOCCCCCCCl (some centres unmarked) [PBI-4980, Dexamethasone Carbamate Chloroalkane]
binding kinetics to HaloTag protein in lysate (HaloTag® protein [1]; dexamethasone-chloroalkane conjugates, 0-60 min): faster binding kinetics
cell permeability/binding efficiency to HaloTag protein in cells (HaloTag® protein [2]; dexamethasone-chloroalkane conjugates, 0-60 min (O4 = PBI-4026, O6 = PBI-4025)): best cell permeability/binding efficiency
efficiency of Nluc:GR fusion pull down (NanoLuc:GR fusion): significantly higher
affinity / binding efficiency to glucocorticoid receptor [3]: best binding efficiency
affinity / binding efficiency to glucocorticoid receptor ([3]; listed as carbamate linker): highest affinity

Cc1nc(Nc2ncc(C(=O)Nc3c(C)cccc3Cl)s2)cc(N2CCN(CCOC(=O)NCCCCCNC(=O)OCCOCCOCCOC(=O)NCCOCCOCCCCCCCl)CC2)n1 [PBI-5270, Dasatinib Bis-Carbamate]
pull-down of ABL:NanoLuc fusion from live cells [4]: pulled down efficiently

CN(Cc1cnc2nc(N)nc(N)c2n1)c1ccc(C(=O)NC(CCC(=O)NCCCCCNC(=O)OCCOCCOCCOC(=O)NCCOCCOCCCCCCCl)C(=O)O)cc1 (centres unmarked) [PBI-5015, Methotrexate Carbamate Chloroalkane]
binding efficiency / labeling kinetics to HaloTag protein in lysate (HaloTag® protein [1]): fast labeling kinetics
pull-down of Nluc:DHFR fusion from living cells [5]: efficiently pulled down
cell permeability/binding efficiency to HaloTag protein in cells (HaloTag® protein [2]; [6]): good cell permeability and binding efficiency; also recorded: best cell permeability and binding efficiency

CC(C)(C)c1cc(NC(=O)Nc2ccccc2)n(-c2cccc(CNC(=O)CNC(=O)CCC(=O)NCCOCCOCCCCCCCl)c2)n1 [PBI-4832, BIRB* O2 Chloroalkane]
binding kinetics to HaloTag protein in cell lysate (HaloTag® protein [1]; modified BIRB796-chloroalkane conjugates, 0-60 min): fast binding kinetics

C[C@@H]1CC2[C@@H]3CCC4=CC(=O)C=C[C@]4(C)[C@@]3(F)[C@@H](O)C[C@]2(C)[C@@]1(O)C(=O)NCCOCCOCCOCCOCCC(=O)NCCOCCOCCCCCCCl (some centres unmarked) [PBI-4025]
affinity / binding efficiency to glucocorticoid receptor [3]: highest affinity; also recorded: best binding efficiency; also recorded: higher affinity

CN(Cc1cnc2nc(N)nc(N)c2n1)c1ccc(C(=O)NC(CCC(=O)NCCOCCOCCCCCCCl)C(=O)O)cc1 (centres unmarked) [PBI-4848, Methotrexate-O2 Chloroalkane]
binding efficiency / labeling kinetics to HaloTag protein in lysate (HaloTag® protein [1]): fast labeling kinetics
cell permeability/binding efficiency to HaloTag protein in cells (HaloTag® protein [2]; [6]): best cell permeability and binding efficiency; also recorded: higher cell permeability

Cc1nc(Nc2ncc(C(=O)Nc3c(C)cccc3Cl)s2)cc(N2CCN(CCOC(=O)NCCOCCOCCCCCCCl)CC2)n1 [PBI-5590, Dasatinib Monocarbamate]
binding kinetics to HaloTag protein in cell lysate (HaloTag® protein [1]; dasatinib-chloroalkane conjugates, 0-60 min, compared with PBI-5270): faster binding kinetics
